Tests used:
[1] = system: active caspase-1; test: Western blotting of active caspase-1 in HMC-1 cells; assay type: cell-based, human
Method: (6) Western blotting analysis: Cells were seeded in a 6-well plate and then treated with a drug, and after a certain period of time, the cells were harvested. After harvest, the cells were washed with PBS and then lysed. 50 μg of tissue protein and cell extract protein were subjected to electrophoresis on 12% gel, transferred to nitrocellulose paper, and then blocked with 6% bovine serum albumin for 2 hours. Each protein was reacted with a primary antibody overnight and washed with PBS-tween. Thereafter, the resulting protein was reacted with a secondary antibody for 2 hours, washed, and then detected using an ECL solution kit.

[2] = system: balb/c mice with DNCB-induced atopic dermatitis; test: DNCB-induced atopic dermatitis model; assay type: in vivo; settings: for epidermal thickness: DNCB group 87.1±13.0, normal 24.5±10.3; for number of mast cells in skin tissue: applied 3 weeks; for blood IgE level: DNCB group 790.0±151.8
Source text: (5) Reverse transcription-polymerase chain reaction (RT-PCR) quantitative real time PCR: Total RNA was isolated from cells and tissues, and cDNA was synthesized using a reverse transcriptase and was then reacted with cytokine primers to be analyzed, followed by PCR and real-time PCR. The RT-PCR products were subjected to electrophoresis using 1.5% agarose gel for analysis.
A. Experimental animal: 5-week-old male BALB/c mice obtained from. Daehan Biolink (Eumseong, Chungbuk) were adapted for 2 weeks in a clean animal breeding room (small animal room #2-302) at Hoseo University Safety Evaluation Center, set under environmental conditions: temperature of 22±3° C.; relative humidity of 50±20%; ventilation frequency of 10 to 15 times/hour, illumination for 12 hours; and illuminance of 150 Lux to 300 Lux, and then used in an experiment.
4 experimental animals were accommodated in each of polycarbonate cages (270×500×200 mm, KYERYONG SCIENCE). Feed (5053-Picolab Rodent 20, PMI Nutrition International) and drinking water (ultraviolet sterilized filtered water) were allowed to ingest freely. All procedures of the experiment were conducted after approved by the Ethics Committee of the Hoseo University Safety Evaluation Center (HTRC-15-19).
B. Dermatitis induction: Hairs on the back of each mouse were removed and maintained for 24 hours, and then 150 μl of a 1% 2,4-dinitrochlorobenzene(DNCB) solution (acetone: olive oil=3:1) was applied on the hair-removed site once a week for 3 weeks. After week 3, the DNCB solution was applied on the site twice a week for 3 weeks to induce atopic dermatitis.
C. Treatment: Mice were divided into 6 groups, and 0.5% DMSO was applied on animals as a control and 200 μl of each of 0.01 μM, 0.1 μM, and 1 μM test material was applied on animals as experimental groups for 3 weeks. 50 μl of 0.1% dexamethasone dissolved in a crude alcohol was applied on animals as a positive control at intervals of 2 days.
D. Biopsy: After application of the test material was completed, the dorsal skin of each experimental animal was incised under heart anesthesia, some of them were rapidly frozen using liquid nitrogen and stored at −70° C. before analysis, and the remainder was fixed with 10% neutral buffered formalin for 24 hours. The fixed tissues were prepared into slides through general tissue processing, and then subjected to hematoxylin & eosin (H&E) staining to measure the thickness of the epidermal layer. In addition, toluidine blue staining was performed to observe a quantitative change of mast cells. While the stained tissues were observed by an optical microscope, the thickness of the epidermal layer and the number of mast cells were obtained using an image analyzer (Olympus DP-21).
E. IgE level measurement: IgE concentration in blood was measured by (SHIBAYAGI, Japan) using serum collected when autopsy was performed. 50 μL of an IgE standard solution and the sample were placed in antibody-attached 96 wells and allowed to react for 2 hours, and then 50 μL of a biotin-conjugated anti-IgE antibody solution was added to each well and allowed to react for 2 hours. Thereafter, the resulting sample was reacted with a HRP-avidin solution for 1 hour and a chromogenic substrate (TBM) reagent for 20 minutes, and the reaction was stopped using a reaction stopper. Absorbance of the sample was measured at 450 nm using ELISA (Molecular devices Emax).

[3] = system: IL-6, IL-22, IL-33; test: Western blotting of cytokines in DNCB skin tissue lysates; assay type: in vivo, balb/c mice; settings: changed slightly
Method: E. Western blotting analysis: Western blotting analysis was performed to verify differences in protein expression in the above antibody array experiment. Proteins from the tissue lysates were separated on SDS-PAGE. The electrophoresed proteins were then transferred onto the PVDF membranes. After washing with PBST solution, the PVDF membranes were blocked with 5% skim milk powder for 1 hour and then reacted with a primary antibody overnight at 4° C. The membranes were washed with PBST solution and reacted with a secondary antibody (anti-IgG) conjugated with horseradish peroxidase (HRP) for 1 hour at room temperature and examined with a photoresist film.

[4] = system: balb/c mice with DNCB-induced atopic dermatitis; test: DNCB-induced atopic dermatitis model; assay type: in vivo; settings: DNCB-applied balb/c mice, concentration of 0.011 μM (so in the source)
[5] = DNCB-applied balb/c mice skin tissue, RT-PCR
[6] = DNCB-applied balb/c mice, concentration of 0.011 μM (so in the source)

Cl.N=C(N)NC(=N)Nc1ccc(Cl)cc1 [IPS-07001]
expression of active caspase-1 [1]: inhibited
visual changes of skin symptoms ([2]; 0.01 μM, topical, 3 weeks): No significant visual changes
epidermal thickness ([2]; 0.01 μM): 70.8±4.3 μm
number of mast cells in skin tissue ([2]; 0.1 μM, p<0.01): 25.8±3.5
visual changes of skin symptoms ([2]; 0.1 μM, topical, 3 weeks): No significant visual changes
epidermal thickness ([2]; 0.1 μM): 74.4±7.1 μm
blood IgE level ([2]; 0.1 μM, p<0.05): 632.6±138.8
number of mast cells in skin tissue ([2]; 1 μM, p<0.01): 23.8±5.1
erythema, excoriation, and lichenification (visual observation) ([2]; 1 μM, topical, 3 weeks, compared to DNCB group): reduced
epidermal thickness ([2]; 1 μM): 60.0±8.2 μm
blood IgE level ([2]; 1 μM, p<0.01): 537.9±132.9
IL-6 mRNA expression in atopic skin lesions [2, 5]: regulated
TARC mRNA expression in atopic skin lesions [2, 5]: regulated
TNF-a mRNA expression in atopic skin lesions [2, 5]: regulated
IL-4 level in dorsal skin [2, 6]: significantly regulated
serum IL-4 level [2, 6]: significantly regulated
serum IgE level [2, 6]: significantly regulated
serum histamine level [2, 6]: significantly regulated
IL-6 protein expression (western blotting) [3]: decreased
IL-22 protein expression (western blotting) [3]: decreased
IL-33 protein expression (western blotting) [3]: decreased
IL-6 level in dorsal skin [4]: significantly regulated
